This data set in a line: Part 6 IH: plasma pharmacokinetics, single doses. The data set is classed as in vivo, human. Particulars: for Cmax / AUC(0-t) / Tmax: human, oral, plasma; for Cmax / AUC(0-t): geometric mean; for AUC(0-t): read-out: AUC0-24. As to the method:
Treatments were administered under fasted state. Dose levels were as follows:
Subjects were randomized to 1 of 4 sequences.
Blood samples (up to 5 mL per sample) were collected for PK analysis of Compound A and its metabolite(s). The actual time of sample collection was recorded. The PK samples of the subjects randomized to placebo treatment were not analyzed. Any remaining plasma PK samples were used to explore the presence of any additional metabolites and/or biomarkers.
Plasma and urine concentrations of Compound A and its metabolite(s) were measured using a validated high-performance liquid chromatography with tandem mass spectrometry.
The PK population was used for summaries of plasma Compound A and its metabolite(s) concentrations and for analyses, summaries, and listing of PK parameters. Dose proportionality for Cmax, AUC0-t, and AUC0-∞ was evaluated using a linear model of logarithmically transformed values to assess the slope parameter, and the 95% CI for the slope was estimated. Where a 95% CI of the slope includes 1, it was considered as evidence of dose proportionality for that PK parameter.

The source of these data is US20250186405A1, “Compound For Use In Treating Narcolepsy” (Alkermes, Inc., priority 2023, published 2025).

The Cmax is the highest concentration seen after dosing. Usually Tmax stands for the time from dosing to the highest level.

SMILES strings stand for the structures. Like-named read-outs stand apart in the source and are kept apart here.

With `CS(=O)(=O)N[C@H]1CCCN2C(=O)COc3ccccc3C3CCC(CC3)OCC12` (stereo partly drawn) [Compound A, N-[(4S,4aR,7α,10α)-1,2,3,4,4a,5,7,8,9,10,16,17-dodecahydro-17-oxo-7,10-ethanopyrido[1,2-d][1,7,4]benzodioxaazacyclotridecin-4-yl]methanesulfonamide], the “fold change in AUC and Cmax for 5-fold change in dose” value (IH patients, 5 to 25 mg) is listed as “approximately 3 fold”. Further, the Cmax came to 11.8 ng/mL (5 mg, IH, n = 7); 18.1 ng/mL (12 mg, IH, n = 7); 32.2 ng/mL (25 mg, IH, N = 8). In addition, the AUC(0-t) reads like this: (5 mg, IH, n = 7) 78.9 ng·h/mL; (12 mg, IH, n = 7) 156 ng·h/mL; (25 mg, IH, N = 8) 230 ng·h/mL. Moreover, the Tmax was 1.5 h (5 mg, IH, median, n = 7, read-out: Tmax); 3 h (12 mg, IH, median, n = 7, read-out: Tmax); 1.5 to 3 h (25 mg, IH patients, 5, 12, 25 mg, read-out: median tmax, range across doses); 1.5 h (25 mg, IH, median, N = 8, read-out: Tmax).
